Experimental data reported in paper PMC8238916 (Nature chemical biology, 2021).

B1: BMI1 RING domain (residues 1-104) as it stands in RING1B-BMI1f (domain or fragment)
chain: MHRTTRIKITELNPHLMCVLCGGYFIDATTIIECLHSFCKTCIVRYLETSKYCPICDVQVHKTRPLLNIRSDKTLQDIVYKLVPGLFKNEMKRRRDFYAAHPSA

Assays:
[1] = tested on: TEX cells; assay: Western blot in TEX cells; assay type: cell-based, human; details: 4 days
[2] = tested on: TEX cells; assay: Cell viability assay; assay type: cell-based, human
[3] = tested on: TEX cells; assay: Gene expression; assay type: cell-based, human; details: 96 hours
[4] = molecular target: T1, RING1B RING domain (residues 10-116) as it stands in RING1B-BMI1f (UniProt Q99496 10-116); assay: crystal structure
T1 sequence: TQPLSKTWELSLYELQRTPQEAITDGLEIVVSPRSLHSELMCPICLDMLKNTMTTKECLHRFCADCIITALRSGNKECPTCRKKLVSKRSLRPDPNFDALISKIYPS

Molecule	H2Aub, BMI1 and H2A levels [1]	cytotoxicity compared with RB-3 [2]	C/EBPα and CD34 expression [3]	binding result [4]
COc1cc(Br)c(Nc2nc(-c3c(C)nc4ncccn34)cs2)c(Br)c1 [PTC209]	decreased H2Aub, reduced BMI1 level and, unexpectedly, reduced H2A levels	more cytotoxic to TEX cells than RB-3	had no effect on C/EBPα and CD34 expression	–
B1	–	–	–	binds
